{"source": "paper PMC10838150", "about": "(Toxicology in vitro : an international journal published in …, 2021)", "key": {"[1]": {"assay": "Metabolic clearance", "conditions": "human, MCF7 cells, Mean Half-life, MCF7, 1 μM, one-phase exponential decay"}, "[2]": {"tested_on": "MCF7", "assay": "Metabolic clearance", "conditions": "MCF7, 1 μM"}, "[3]": {"assay": "Metabolic clearance", "conditions": "human, HepG2 cells, Mean Half-life, HepG2, 1 μM, one-phase exponential decay"}, "[4]": {"tested_on": "HepG2", "assay": "Metabolic clearance", "conditions": "HepG2, 1 μM"}, "[5]": {"assay": "Metabolic clearance", "conditions": "human, HEK293 cells, Mean Half-life, HEK293, 1 μM, one-phase exponential decay"}, "[6]": {"tested_on": "HEK293", "assay": "Metabolic clearance", "conditions": "HEK293, 1 μM"}, "[7]": {"assay": "Metabolic clearance", "conditions": "human, Mean Half-life, 50-donor pool PHHs, one-phase exponential decay"}, "[8]": {"tested_on": "50-donor pool PHHs", "assay": "Metabolic clearance", "conditions": "1 μM"}, "[9]": {"tested_on": "PHHs", "conditions": "150 minutes, 50 μM 7HC"}, "[10]": {"tested_on": "HepG2"}, "[11]": {"tested_on": "HEK293"}, "[12]": {"tested_on": "MCF7"}, "[13]": {"tested_on": "CYP1A2", "assay": "CYP450-Glo bioluminescent assay CYP1A2 in Tox21 cell lines", "format": "cell-based", "conditions": "24 hours pretreatment"}, "[14]": {"tested_on": "50-donor pool PHHs", "conditions": "human, 1 μM"}, "[15]": {"tested_on": "HepG2", "conditions": "human, 1 μM"}, "[16]": {"tested_on": "HEK293", "conditions": "human, 1 μM"}, "[17]": {"tested_on": "MCF7", "conditions": "human, 1 μM"}, "[18]": {"molecular_target": "T1, CYP2B6 (Homo sapiens, UniProt P20813)", "T1 sequence (P20813 1-491)": "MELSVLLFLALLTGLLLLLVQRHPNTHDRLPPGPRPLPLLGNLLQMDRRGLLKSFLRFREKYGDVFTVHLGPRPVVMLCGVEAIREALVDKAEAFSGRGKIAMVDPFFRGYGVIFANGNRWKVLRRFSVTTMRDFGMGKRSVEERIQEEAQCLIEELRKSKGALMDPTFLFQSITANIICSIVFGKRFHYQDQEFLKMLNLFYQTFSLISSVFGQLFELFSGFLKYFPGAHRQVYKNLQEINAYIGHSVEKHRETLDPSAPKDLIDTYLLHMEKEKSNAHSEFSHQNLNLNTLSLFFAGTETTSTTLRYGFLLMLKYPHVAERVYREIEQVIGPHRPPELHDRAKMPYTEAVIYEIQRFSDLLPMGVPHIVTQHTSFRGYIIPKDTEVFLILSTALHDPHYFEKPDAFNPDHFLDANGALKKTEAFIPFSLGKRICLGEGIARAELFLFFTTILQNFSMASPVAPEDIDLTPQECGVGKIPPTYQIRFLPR", "assay": "Hydroxybupropion formation from bupropion in HepG2", "format": "in vitro ADME", "conditions": "HepG2 cells"}, "[19]": {"molecular_target": "T1, CYP2B6", "assay": "Hydroxybupropion formation from bupropion in HEK293", "format": "in vitro ADME", "conditions": "HEK293 cells"}, "[20]": {"molecular_target": "T1, CYP2B6", "assay": "Hydroxybupropion formation from bupropion in HCT116", "format": "in vitro ADME", "conditions": "HCT116 cells"}, "[21]": {"tested_on": "CYP2B6", "assay": "Hydroxybupropion formation from bupropion in C3H10T1/2", "format": "in vitro ADME, mouse", "conditions": "C3H10T1/2, 24 h, Michaelis-Menten fit"}, "[22]": {"tested_on": "CYP3A4/5", "assay": "1-Hydroxymidazolam formation from midazolam in PHH suspensions", "format": "in vitro ADME, human"}, "[23]": {"tested_on": "CYP3A4/5", "assay": "1-Hydroxymidazolam formation from midazolam in HepG2", "format": "in vitro ADME, human"}, "[24]": {"tested_on": "CYP1A2", "assay": "Acetaminophen formation from phenacetin in HepG2", "format": "in vitro ADME, human"}, "[25]": {"tested_on": "CYP1A2", "assay": "Acetaminophen formation from phenacetin in C3H10T1/2", "format": "in vitro ADME, mouse"}, "[26]": {"tested_on": "sulfotransferase", "conditions": "ref Ishii and Tamura, 2003, cited from earlier work"}, "[27]": {"conditions": "HepG2, 24 h, Michaelis-Menten fit"}}, "note": "Read-outs that look alike come from different tables or passages of the source.", "data": [{"smiles": "O=c1ccc2ccc(O)cc2o1", "note": "[7HC, 7-hydroxycoumarin]", "values": [{"measurement": "half-life at 1 μM", "setting": "[1]", "result": "~4.83", "unit": "h"}, {"measurement": "Percent Depletion 240 min", "setting": "[2]", "result": 40, "unit": "%"}, {"measurement": "Mean Half-life", "setting": "[2]; one-phase exponential decay", "result": 4.875, "unit": "h"}, {"measurement": "half-life at 1 μM", "setting": "[3]", "result": "~4.83", "unit": "h"}, {"measurement": "Percent Depletion 240 min", "setting": "[4]", "result": 27, "unit": "%"}, {"measurement": "Mean Half-life", "setting": "[4]; one-phase exponential decay", "result": 4.843, "unit": "h"}, {"measurement": "half-life at 1 μM", "setting": "[5]", "result": "~3.5", "unit": "h"}, {"measurement": "Percent Depletion 240 min", "setting": "[6]", "result": 50, "unit": "%"}, {"measurement": "Percent Depletion 24 hour", "setting": "[6]", "result": 99, "unit": "%"}, {"measurement": "Mean Half-life", "setting": "[6]; one-phase exponential decay", "result": 3.498, "unit": "h"}, {"measurement": "half-life at 1 μM", "setting": "[7]", "result": "~0.383", "unit": "h"}, {"measurement": "Percent Depletion 240 min", "setting": "[8]", "result": 99, "unit": "%"}, {"measurement": "Mean Half-life", "setting": "[8]; one-phase exponential decay", "result": 0.378, "unit": "h"}]}, {"smiles": "O=C(O)[C@H]1O[C@@H](Oc2ccc3ccc(=O)oc3c2)[C@H](O)[C@@H](O)[C@@H]1O", "note": "[7HCG, 7-hydroxycoumarin glucuronide]", "values": [{"measurement": "Phase II Metabolite Formation Rate", "setting": "[9]", "result": "190 ± 41.8", "unit": "pmol/minute-million cells"}, {"measurement": "Phase II Metabolite Formation Rate", "setting": "[10]; HepG2, 150 minutes, 50 μM 7HC", "result": "1.96 ± 0.887", "unit": "pmol/minute-million cells"}, {"measurement": "Phase II Metabolite Formation Rate", "setting": "[10]; HepG2, 24 hours, 50 μM 7HC", "result": "2.89 ± 0.563", "unit": "pmol/minute-million cells"}, {"measurement": "Phase II Metabolite Formation Rate", "setting": "[11]; HEK293, 150 minutes, 50 μM 7HC", "result": "-------------^1"}, {"measurement": "Phase II Metabolite Formation Rate", "setting": "[11]; HEK293, 24 hours, 50 μM 7HC", "result": "-------------^1"}, {"measurement": "Phase II Metabolite Formation Rate", "setting": "[12]; MCF7, 150 minutes, 50 μM 7HC", "result": "1.34 ± 0.206", "unit": "pmol/minute-million cells"}, {"measurement": "Phase II Metabolite Formation Rate", "setting": "[12]; MCF7, 24 hours, 50 μM 7HC", "result": "0.809 ± 0.0457", "unit": "pmol/minute-million cells"}]}, {"smiles": "Nn1nnc2ccccc21", "note": "[ABT, aminobenzotriazole]", "values": [{"measurement": "inhibition of CYP1A2 luminescent metabolite formation", "setting": "[13]; ABT 1 mM, HepG2, MCF7, CHO-K1, C3H10T1/2, GH3TRE-Luc", "result": "only inhibited in CHO-K1 cells"}]}, {"smiles": "O=C(O)[C@H]1O[C@@H](Oc2ccc(C(c3ccc(O)cc3)(C(F)(F)F)C(F)(F)F)cc2)[C@H](O)[C@@H](O)[C@@H]1O", "note": "[BPAF G, bisphenol AF glucuronide]", "values": [{"measurement": "Phase II Metabolite Formation Rate", "setting": "[10]; HepG2, 150 minutes, 50 μM BPAF or BPS", "result": "-------------^1"}, {"measurement": "Phase II Metabolite Formation Rate", "setting": "[11]; HEK293, 150 minutes, 50 μM BPAF or BPS", "result": "-------------^1"}, {"measurement": "Phase II Metabolite Formation Rate", "setting": "[11]; HEK293, 24 hours, 50 μM BPAF or BPS", "result": "-------------^1"}, {"measurement": "Phase II Metabolite Formation Rate", "setting": "[12]; MCF7, 150 minutes, 50 μM BPAF or BPS", "result": "-------------^1"}, {"measurement": "Phase II Metabolite Formation Rate", "setting": "[12]; MCF7, 24 hours, 50 μM BPAF or BPS", "result": "-------------^1"}]}, {"smiles": "Oc1ccc(C(c2ccc(O)cc2)(C(F)(F)F)C(F)(F)F)cc1", "note": "[BPAF, bisphenol AF]", "values": [{"measurement": "Percent Depletion 240 min", "setting": "[14]; 240 min", "result": "82 ±/- 2.9%"}, {"measurement": "Mean Half-life", "setting": "[14]; hepatocytes", "result": 1.44, "unit": "h"}, {"measurement": "Percent Depletion 240 min", "setting": "[15]; 240 min", "result": "36 ±/- 8.2%"}, {"measurement": "Percent Depletion 24 hour", "setting": "[15]; 24 h", "result": "66 ±/- 6.6%"}, {"measurement": "Mean Half-life (fast)", "setting": "[15]; other cell line", "result": 0.52, "unit": "h"}, {"measurement": "Mean Half-life (slow)", "setting": "[15]; other cell line", "result": "1,626 min"}, {"measurement": "Percent Depletion 240 min", "setting": "[16]; 240 min", "result": "36 ±/- 5.4%"}, {"measurement": "Percent Depletion 24 hour", "setting": "[16]; 24 h", "result": "60 ±/- 4.5%"}, {"measurement": "Mean Half-life (slow)", "setting": "[16]; other cell line", "result": "~1,887 min"}, {"measurement": "Percent Depletion 240 min", "setting": "[17]; 240 min", "result": "42 ±/- 7.7%"}, {"measurement": "Percent Depletion 24 hour", "setting": "[17]; 24 h", "result": "55 ±/- 7.4%"}, {"measurement": "Mean Half-life (fast)", "setting": "[17]; other cell line", "result": 0.388, "unit": "h"}, {"measurement": "Mean Half-life (slow)", "setting": "[17]; other cell line", "result": "~9,684 min"}]}, {"smiles": "CC(NC(C)(C)C)C(=O)c1cccc(Cl)c1", "note": "(stereo not drawn) [Bupropion, bupropion]", "values": [{"measurement": "Km at 24 h", "setting": "[18]", "result": "4.79 ± 5.48", "unit": "µM"}, {"measurement": "Km at 24 h", "setting": "[19]", "result": "1260 ± 734", "unit": "µM"}, {"measurement": "Km at 24 h", "setting": "[20]", "result": "1910 ± 1050", "unit": "µM"}, {"measurement": "Vmax CYP2B6", "setting": "[21]", "result": "0.0422 ± 0.0119"}]}, {"smiles": "Cc1ncc2n1-c1ccc(Cl)cc1C(c1ccccc1F)=NC2", "note": "[Midazolam, midazolam]", "values": [{"measurement": "Vmax CYP3A4/5", "setting": "[22]; PHH, 30 min, Michaelis-Menten fit", "result": "187 ± 8.35"}, {"measurement": "Km at 30 min", "setting": "[22]; human", "result": "10.7 ± 1.34", "unit": "µM"}, {"measurement": "Vmax CYP3A4/5", "setting": "[23]; [27]", "result": "0.0177 ± 0.000912"}, {"measurement": "Km at 24 h", "setting": "[23]; human, HepG2 cells", "result": "0.969 ± 0.268", "unit": "µM"}]}, {"smiles": "COc1ccc2[nH]c([S+]([O-])Cc3ncc(C)c(OC)c3C)nc2c1", "note": "(stereo not drawn) [OMP, omeprazole]", "values": [{"measurement": "induction of CYP1A2 luminescence", "setting": "[13]; OMP 100 μM, Tox21 cell lines", "result": "only marginal increased luminescence"}]}, {"smiles": "CCOc1ccc(NC(C)=O)cc1", "note": "[Phenacetin]", "values": [{"measurement": "Vmax CYP1A2", "setting": "[24]; [27]", "result": "0.320 ± 0.0234"}, {"measurement": "Km at 24 h", "setting": "[24]; human, HepG2 cells", "result": "38.4 ± 11.8", "unit": "µM"}, {"measurement": "Vmax CYP1A2", "setting": "[25]; C3H10T1/2, 24 h, Michaelis-Menten fit", "result": "0.168 ± 0.0393"}, {"measurement": "Km at 24 h", "setting": "[25]; mouse, C3H10T1/2 cells", "result": "247 ± 111", "unit": "µM"}]}, {"smiles": "CC(C)(c1ccc(O)cc1)c1ccc(O)cc1", "note": "[bisphenol A]", "values": [{"measurement": "depletion", "setting": "[26]; after 5 days incubations with 10 μM exposure", "result": 4, "unit": "%"}, {"measurement": "Km", "setting": "[26]; read-out: apparent Km for sulfotransferase activity", "result": 74, "unit": "µM"}]}]}
